Experimental data: patent US11155668B2, “Contact-killing, QAC functionalized thermoplastic polyurethane for catheter applications” (THE UNIVERSITY OF AKRON, priority 2017, dated 2021)

Tests used:
[1] = tested on: E. faecalis; experiment: Contact-killing assay (adapted from ISO 22196) on allyl-TPU blade-coated samples modified with Qx-SH; assay type: cell-based, Enterococcus faecalis (ATCC 29212); settings: n = 1, negative control polypropylene 1.70 × 10^5
Protocol: (§1) To functionalize the allyl-TPU blade-coated samples with Qx-SH reagents, thiol-ene reactions were performed using the same procedure described for rhodamine-SH. Briefly, blade-coated films of allyl-TPU (250 μm thick, 2.0 cm diameter, ca. 110 mg, 20 μmol allyl) were submerged in 2 mL of an Ar purged (30 min) aqueous solution containing Qx-SH (10.0 mM) and LAP (5.0 mM), and allowed to pre-soak for 30 min under Ar. UV-treated samples were irradiated for 30 min (λ=365 nm, I=1.2 mW·cm^−2) while phys. ads. samples were kept in the absence of UV light for 30 min to control for any antimicrobial activity that is contributed by non-covalently attached QAC. Following treatment, the dye/photoinitiator solutions were drawn up and discarded, and the samples were rinsed with 5 mL of DI water (3×) then submerged in 5 mL of DI water. The samples were further rinsed with 10% EtOH (3×) and soaked in 10% EtOH for 15 min (3×), rinsing with 10% EtOH in between each soak.
(§2) For antimicrobial testing, blade-coated samples and catheter tubing of allyl-TPU were sterilized by EtO sterilization using an Anprolene benchtop sterilizer (Anderson Products, Inc., Haw River, N.C.) following the manufacturer's protocol to deliver approximately 0.5 cc·L^−1 of EtO gas over a 12 h sterilization cycle at 35% humidity and room temperature, followed by a 48 h purge under vacuum. The bacterial strains used in this study included Staphylococcus epidermidis (ATCC 12228), Staphylococcus aureus (25923), Escherichia coli (ATCC 25922), Pseudomonas aeruginosa (ATCC 27853), Enterococcus faecalis (ATCC 29212), and methicillin-resistant Staphylococcus aureus (MRSA) (ATCC BAA-41).
(§3) The contact-killing assay was performed on physically adsorbed (phys. ads.), and UV-treated blade-coated samples modified with a series of Qx-SH reagents using a method adapted from ISO 22196. See, International Organization for Standardization. Measurement of antibacterial activity on plastics and other non porous surfaces (ISO 22196:2011), the disclosure of which is incorporated herein by reference in its entirety. Briefly, the samples were inoculated with same day cultures of select bacteria (e.g. E. coli, S. epidermidis) in dilute nutrient media (0.2% tryptic soy broth (TSB) in 1× phosphate buffered saline (PBS)) at approximately 150 colony-forming units (CFU)·mm^−2. Generally, 35 uL of 8.5×10^5 CFU/mL cultures were dispersed across the surface of the sample using sterile polypropylene cover films (area=198 mm^2). Inoculated samples were incubated in a humidified room air incubator (36° C., ca. 80% rel. humidity) for 20 h. Following incubation, surviving cells were recovered from the samples using vigorous agitation (i.e. vortexing for 20 s in PBS). Surviving cells were enumerated via 10-fold series dilution and plating 100 μL onto tryptic soy agar (TSA), incubating overnight and then plate counting CFU. The mean CFU recovered per sample (CFU/sample) were calculated by accounting for dilutions. Internal controls samples of polypropylene and chlorhexidine treated with polypropylene were included in the assay.

[2] = tested on: P. aeruginosa; experiment: as above; assay type: cell-based, Pseudomonas aeruginosa (ATCC 27853); settings: for Mean CFU/Sample Recovered, P. aeruginosa: n = 1, negative control polypropylene 7.94 × 10^6
Protocol: as §1, §2, §3

[3] = tested on: NIH/3T3 fibroblast cells; experiment: Cell viability assay (LIVE/DEAD staining) on coated coverslips; assay type: cell-based; settings: for cell viability relative to glass: 24 h
Protocol: NIH/3T3 fibroblast cells (ATCC CRL-1658) were used to assess cell viability (passage 9) on the allyl-TPU films. The 8% allyl-TPU was spin-coated on blank glass coverslips (1 wt. % in chloroform) and samples were annealed at 60° C. for 1 h, then kept under vacuum for 24 h. The coated coverslips were then treated and rinsed as previously described to produce a control, phys. ads., and UV-treated sample modified with Q8-SH. Samples were sterilized by short-wave UV sterilization for 30 minutes. Cells were seeded at a cell density of 194,000 cells/cm^2 and cultured for 24 hours in a 37° C. incubator. Samples were then removed and stained with a LIVE/DEAD™ Viability/Cytotoxicity Kit (ThermoFisher Scientific L3224). Slides were analyzed with a Keyence BZ-X700 microscope at 20× magnification. Pictograms were analyzed with ImageJ software for cell viability counting (n=5). All groups were compared to the glass slide control.

## CCCCCCCC[N+](C)(C)CCCCCCCCOC(=O)CCS.[Cl-] [Q8-SH]
[1]; UV-treated samples
  Mean CFU/Sample Recovered, E. faecalis: 0.00 CFU/Sample
[1]; phys. ads. samples
  Mean CFU/Sample Recovered, E. faecalis: 0.00 CFU/Sample
[2]; UV-treated samples
  reduction of P. aeruginosa: complete reduction
  Mean CFU/Sample Recovered, P. aeruginosa: 0.00 CFU/Sample
[2]; phys. ads. samples
  reduction of P. aeruginosa: complete reduction
  Mean CFU/Sample Recovered, P. aeruginosa: 0.00 CFU/Sample
[3]; UV-treated samples
  cell viability relative to glass: > 90%
[3]; control, phys. ads. and UV-treated samples compared to a glass slide control, FIG. 68
  cytotoxicity towards mammalian cells (in words): non-cytotoxic
[3]; phys. ads. samples
  cell viability relative to glass: > 90%
